Test results: BindingDB's records for patent US11814384 (Kinnate Biopharma, 2023)
“Also recorded” adds a separate entry of the source.

Target: Serine/threonine-protein kinase B-raf (Homo sapiens, UniProt P15056)
Experiment: Enzymatic BRAF Kinase Activity Assay
Protocol: Small molecule inhibition of the BRAF kinases was measured using ADP-Glo assay. In the assay, […], resulting in luciferase reaction and luminescent readout with light generated proportional to the relative kinase activity. Compounds diluted in DMSO were used in 10-point, 3-fold dose curve for both assays. Final concentrations of 6 nM BRAF (CarnaBio, Cat. 09-122) or 3 nM RAF1 (CarnaBio, Cat. 09-125) and 30 nM MEK1 substrate (Millipore, Cat. 14-420) were incubated with 3 µM ATP, 10 mM MgCl2, 0.003% Brij-35, 2 mM DTT, 0.05% BSA, 1 mM EGTA, and 50 mM HEPES for 90 minutes at room temp prior to addition of ADP-Glo reagent (Promega, Cat. V9102) for 40 minutes, and detection reagent for 45 minutes. Luminescence was read on an Envision plate reader (PerkinElmer) and percent remaining activity was used to calculate IC50 using a four-parameter fit model using Dotmatics Knowledge Solutions Studies curve fitting (Dotmatics, Bishops Stortford, UK, CM23).

Serine/threonine-protein kinase B-raf, sequence (P15056 whole entry): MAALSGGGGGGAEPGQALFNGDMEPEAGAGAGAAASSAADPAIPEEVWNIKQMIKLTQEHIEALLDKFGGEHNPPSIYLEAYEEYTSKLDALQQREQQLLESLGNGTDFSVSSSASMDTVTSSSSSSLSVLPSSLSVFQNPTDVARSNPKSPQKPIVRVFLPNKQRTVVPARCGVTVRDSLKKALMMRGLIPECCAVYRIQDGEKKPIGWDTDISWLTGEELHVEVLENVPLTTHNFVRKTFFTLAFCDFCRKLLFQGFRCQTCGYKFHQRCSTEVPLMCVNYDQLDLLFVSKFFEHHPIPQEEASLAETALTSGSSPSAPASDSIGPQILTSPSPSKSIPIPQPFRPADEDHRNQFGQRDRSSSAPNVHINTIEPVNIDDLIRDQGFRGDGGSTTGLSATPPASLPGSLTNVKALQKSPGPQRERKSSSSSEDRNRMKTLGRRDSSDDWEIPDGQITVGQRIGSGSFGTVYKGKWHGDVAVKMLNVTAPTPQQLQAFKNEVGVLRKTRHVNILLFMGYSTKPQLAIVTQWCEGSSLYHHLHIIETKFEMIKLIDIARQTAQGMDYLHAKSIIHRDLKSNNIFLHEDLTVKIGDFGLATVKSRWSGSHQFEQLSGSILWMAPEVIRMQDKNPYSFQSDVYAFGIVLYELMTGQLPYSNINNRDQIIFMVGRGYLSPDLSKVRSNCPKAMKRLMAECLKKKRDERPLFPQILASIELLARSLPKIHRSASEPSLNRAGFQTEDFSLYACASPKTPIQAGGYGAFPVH

Row | Compound | IC50
1 | Cc1cc(F)c(NC(=O)N2CC[C@@H](CC(F)(F)F)C2)cc1-c1cc(N2CCOCC2)c2nn(C)cc2c1 [US11814384, Example 1] | in the range around 5.5 nM
2 | Cc1cc(F)c(NC(=O)N2CC[C@@H](CC(F)(F)F)C2)cc1-c1cc(N2CCOCC2)c2nn(C)c(C)c2c1 [US11814384, Example 16] | in the range around 5.5 nM
3 | Cc1cc(F)c(NC(=O)N2CC[C@@H](CC(F)(F)F)C2)cc1-c1cc(N2CCOCC2)c2nccn2c1 [US11814384, Example 17] | in the range around 5.5 nM
4 | Cc1cc(F)c(NC(=O)N2CC=C(C(F)(F)C(F)(F)F)C2)cc1-c1cc(N2CCOCC2)c2nccn2c1 [US11814384, Example 22] | 1 to 10 nM
5 | Cc1cc(F)c(NC(=O)N2CCC(C(F)(F)C(F)(F)F)C2)cc1-c1cc(N2CCOCC2)c2nccn2c1 (stereo not drawn) [US11814384, Example 23] | 1 to 10 nM
6 | Cc1ccc(NC(=O)c2ccnc(C(F)(F)F)c2)cc1-c1cc(N2CCOCC2)c2nc3c(n2c1)COCC3 [US11814384, Example 33] | in the range around 5.5 nM
7 | Cc1ccc(NC(=O)c2ccnc(C(F)(F)F)c2)cc1-c1cc(N2CCOCC2)c2nc3c(n2c1)CC(O)CC3 (stereo not drawn) [US11814384, Example 34] | 1 to 10 nM
8 | Cc1ccc(NC(=O)c2ccnc(C(F)(F)F)c2)cc1-c1cc(N2CCOCC2)c2nc3c(n2c1)CCOC3 [US11814384, Example 36] | in the range around 5.5 nM
9 | Cc1ccc(NC(=O)N2CC[C@@H](CC(F)(F)F)C2)cc1-c1cc(N2CC3CCC(C2)O3)c2nccn2c1 [US11814384, Example 38] | in the range around 5.5 nM
10 | Cc1cc(F)c(NC(=O)c2ccn(C(C)(C)C)c2)cc1-c1cc(N2CCOCC2)c2nccn2c1 [US11814384, Example 43] | in the range around 5.5 nM
11 | Cc1cc(F)c(NC(=O)[C@@H]2CCN(CC(F)(F)F)C2)cc1-c1cc(N2CCOCC2)c2nccn2c1 [US11814384, Example 46] | in the range around 5.5 nM
12 | Cc1cc(F)c(NC(=O)N2CCOC(C(C)(C)C)C2)cc1-c1cc(N2CCOCC2)c2nccn2c1 (stereo not drawn) [US11814384, Example 50] | in the range around 5.5 nM
13 | Cc1cc(F)c(NC(=O)N2CCC(C3(C(F)(F)F)CC3)C2)cc1-c1cc(N2CCOCC2)c2nccn2c1 (stereo not drawn) [US11814384, Example 60] | in the range around 5.5 nM; also recorded: in the range around 55 nM
14 | Cc1cc(F)c(NC(=O)c2cn(C(C)(C)C)cc2F)cc1-c1cc(N2CCOCC2)c2nccn2c1 [US11814384, Example 66] | in the range around 5.5 nM
15 | Cc1cc(F)c(NC(=O)c2cn(C(C)(C)C)cn2)cc1-c1cc(N2CCOCC2)c2nccn2c1 [US11814384, Example 67] | in the range around 5.5 nM
16 | Cc1cc(F)c(NC(=O)N2CC=C(C3(C)CC3)C2)cc1-c1cc(N2CCOCC2)c2nccn2c1 [US11814384, Example 69] | in the range around 5.5 nM
17 | Cc1cc(F)c(NC(=O)c2cncc(C(F)(F)F)c2)cc1-c1cc(N2CCOCC2)c2nccn2c1 [US11814384, Example 70] | in the range around 5.5 nM
18 | Cc1ccc(NC(=O)c2cnn(C(C)(C)C)c2F)cc1-c1cc(N2CCOCC2)c2nccn2c1 [US11814384, Example 73] | in the range around 5.5 nM
19 | Cc1cc(F)c(NC(=O)N2CCC(C(C)(C)C(F)(F)F)C2)cc1-c1cc(N2CCOCC2)c2nccn2c1 (stereo not drawn) [US11814384, Example 74] | in the range around 5.5 nM
20 | CCc1nc2cc(-c3cc(C(=O)Nc4cn(C(C)(C)C)nc4F)c(F)cc3C)cc(N3CCOCC3)n2n1 [US11814384, Example 76] | in the range around 5.5 nM
21 | Cc1cc(F)c(NC(=O)c2cncc(C(C)(F)F)c2)cc1-c1cc(N2CCOCC2)c2nccn2c1 [US11814384, Example 84] | in the range around 5.5 nM
22 | Cc1cc(F)c(NC(=O)c2cn(C(C)(C)C)nn2)cc1-c1cc(N2CCOCC2)c2nccn2c1 [US11814384, Example 86] | in the range around 5.5 nM
23 | Cc1cc(F)c(NC(=O)N2CCC(C(C)C(F)F)C2)cc1-c1cc(N2CCOCC2)c2nccn2c1 (stereo not drawn) [US11814384, Example 87] | in the range around 5.5 nM; also recorded: in the range around 55 nM
24 | Cc1ccc(NC(=O)c2cc(C(C)(C)C)ncc2F)cc1-c1cc(N2CCOCC2)c2nccn2c1 [US11814384, Example 95] | in the range around 55 nM
25 | CC(C)(C)n1ncc(C(=O)Nc2cc(-c3cc(N4CCOCC4)c4nccn4c3)c(Cl)cc2F)c1F [US11814384, Example 98] | in the range around 5.5 nM
26 | O=C(Nc1cc(-c2cc(N3CCOCC3)c3nccn3c2)c(F)cc1F)N1CC[C@@H](CC(F)(F)F)C1 [US11814384, Example 99] | in the range around 55 nM
27 | Cc1cc(F)c(NC(=O)c2cnn(C(C)(C)C)c2F)cc1-c1cc(N2CCOCC2)c2nccn2c1 [US11814384, Example 103] | in the range around 5.5 nM

Row | Compound | IC50
28 | CC(C)(C)n1ncc(C(=O)Nc2ccc(Cl)c(-c3cc(N4CCOCC4)c4nccn4c3)c2)c1F [US11814384, Example 110] | in the range around 5.5 nM
29 | Cc1cc(F)c(NC(=O)c2cnn(C(C)(C)C)c2F)cc1-c1cc(N2CCOCC2)c2ncc(F)n2c1 [US11814384, Example 111] | in the range around 55 nM
30 | Cc1cc(F)c(N)cc1-c1cc(N2CCOCC2)c2nccn2c1 [US11814384, Example 112] | in the range around 55 nM
31 | Cc1cc(F)c(NC(=O)c2ccnc(C(C)C(F)F)c2)cc1-c1cc(N2CCOCC2)c2nccn2c1 (stereo not drawn) [US11814384, Example 113] | in the range around 5.5 nM
32 | Cc1cc(F)c(NC(=O)c2cn(C(C)(C)C)c(F)n2)cc1-c1cc(N2CCOCC2)c2nccn2c1 [US11814384, Example 118] | in the range around 5.5 nM
33 | Cc1cc(F)c(NC(=O)N2CC(F)C(C(C)C)C2)cc1-c1cc(N2CCOCC2)c2nccn2c1 (stereo not drawn) [US11814384, Example 119] | in the range around 5.5 nM
34 | Cc1cc(F)c(NC(=O)c2cnn(C(C)(C)C(F)F)c2)cc1-c1cc(N2CCOCC2)c2nccn2c1 [US11814384, Example 124] | in the range around 5.5 nM
35 | Cc1cc(F)c(NC(=O)c2cnn(C(F)C(C)(C)F)c2)cc1-c1cc(N2CCOCC2)c2nccn2c1 (stereo not drawn) [US11814384, Example 125] | in the range around 5.5 nM
36 | Cc1cc(F)c(NC(=O)c2cnn(C(C)(C)C(F)(F)F)c2)cc1-c1cc(N2CCOCC2)c2nccn2c1 [US11814384, Example 136] | in the range around 5.5 nM
37 | Cc1ncc(NC(=O)c2cnn(C(C)(C)C)c2F)cc1-c1cc(N2CCOCC2)c2nccn2c1 [US11814384, Example 137] | in the range around 5.5 nM
38 | Cc1cnc(NC(=O)c2cnn(C(C)(C)C)c2F)cc1-c1cc(N2CCOCC2)c2nccn2c1 [US11814384, Example 138] | in the range around 5.5 nM
39 | Cc1cn2cc(-c3cc(NC(=O)c4cn(C(C)(C)C)cn4)c(F)cc3C)cc(N3CCOCC3)c2n1 [US11814384, Example 140] | in the range around 5.5 nM
40 | Cc1cc(F)c(NC(=O)c2nn(C(C)(C)C)cc2F)cc1-c1cc(N2CCOCC2)c2nccn2c1 [US11814384, Example 141] | in the range around 5.5 nM
41 | Cc1ccc(NC(=O)c2nn(C(C)(C)C)cc2F)cc1-c1cc(N2CCOCC2)c2nccn2c1 [US11814384, Example 142] | in the range around 5.5 nM
42 | Cc1cn2cc(-c3cc(NC(=O)c4cnn(C(C)(C)C)c4F)c(F)cc3C)cc(N3CCOCC3)c2n1 [US11814384, Example 143] | in the range around 5.5 nM
43 | Cc1cn2cc(-c3cc(NC(=O)c4cn(C(C)(C)C)c(F)n4)c(F)cc3C)cc(N3CCOCC3)c2n1 [US11814384, Example 148] | in the range around 5.5 nM
44 | CC(C)(C)n1cc(C(=O)Nc2cc(-c3cc(N4CCOCC4)c4nccn4c3)c(Cl)cc2F)nc1F [US11814384, Example 151] | in the range around 5.5 nM
45 | Cc1cc(F)c(NC(=O)c2cnn(C(C)(C)C)c2F)cc1-c1cc(C2=CCOCC2)c2nccn2c1 [US11814384, Example 153] | in the range around 5.5 nM
46 | Cc1c(-c2cc(N3CCOCC3)c3nccn3c2)cc(NC(=O)c2cnn(C(C)(C)C)c2F)c(F)c1F [US11814384, Example 159] | in the range around 5.5 nM
47 | Cc1cc(F)c(NC(=O)c2ncn(C(C)(C)C)c2F)cc1-c1cc(N2CCOCC2)c2nccn2c1 [US11814384, Example 160] | in the range around 5.5 nM
48 | Cc1cc(F)c(NC(=O)c2cnn(C(C)(C)C)c2F)cc1-c1cc(N2CCOCC2)n2nccc2c1 [US11814384, Example 162] | in the range around 5.5 nM
49 | Cc1cc(F)c(NC(=O)c2cnn(C34CC(C3)C4)c2)cc1-c1cc(N2CCOCC2)c2nccn2c1 [US11814384, Example 164] | in the range around 5.5 nM
50 | Cc1cc(F)c(NC(=O)c2ccnc(N3CCCC3)c2)cc1-c1cc(N2CCOCC2)c2nccn2c1 [US11814384, Example 166] | in the range around 5.5 nM
51 | Cc1cc(F)c(NC(=O)c2cnn(C(C)(C)C)c2F)cc1-c1cc(N2CC3CCC(C2)O3)c2nccn2c1 [US11814384, Example 180] | in the range around 5.5 nM
52 | Cc1cc(F)c(NC(=O)c2cnn(C(C)(C)C)c2F)cc1-c1cc(N2CCOCC2)c2ncnn2c1 [US11814384, Example 181] | in the range around 5.5 nM
53 | Cc1cc(F)c(NC(=O)c2cnc(C(C)(C)C)o2)cc1-c1cc(N2CCOCC2)c2nccn2c1 [US11814384, Example 183] | in the range around 5.5 nM
